# Data reported in publication PMC11224556, “Next-generation of BBQ analogues that selectively target breast cancer” (Frontiers in Chemistry, 2024).
# Biological target: T1, AhR (Homo sapiens, UniProt P35869)
# T1 construct: This cell line stably expresses the secreted Lucia luciferase reporter gene under the control of a minimal promoter; host or cells: HT29-Lucia AhR reporter cells
# T1 sequence (P35869 11-848): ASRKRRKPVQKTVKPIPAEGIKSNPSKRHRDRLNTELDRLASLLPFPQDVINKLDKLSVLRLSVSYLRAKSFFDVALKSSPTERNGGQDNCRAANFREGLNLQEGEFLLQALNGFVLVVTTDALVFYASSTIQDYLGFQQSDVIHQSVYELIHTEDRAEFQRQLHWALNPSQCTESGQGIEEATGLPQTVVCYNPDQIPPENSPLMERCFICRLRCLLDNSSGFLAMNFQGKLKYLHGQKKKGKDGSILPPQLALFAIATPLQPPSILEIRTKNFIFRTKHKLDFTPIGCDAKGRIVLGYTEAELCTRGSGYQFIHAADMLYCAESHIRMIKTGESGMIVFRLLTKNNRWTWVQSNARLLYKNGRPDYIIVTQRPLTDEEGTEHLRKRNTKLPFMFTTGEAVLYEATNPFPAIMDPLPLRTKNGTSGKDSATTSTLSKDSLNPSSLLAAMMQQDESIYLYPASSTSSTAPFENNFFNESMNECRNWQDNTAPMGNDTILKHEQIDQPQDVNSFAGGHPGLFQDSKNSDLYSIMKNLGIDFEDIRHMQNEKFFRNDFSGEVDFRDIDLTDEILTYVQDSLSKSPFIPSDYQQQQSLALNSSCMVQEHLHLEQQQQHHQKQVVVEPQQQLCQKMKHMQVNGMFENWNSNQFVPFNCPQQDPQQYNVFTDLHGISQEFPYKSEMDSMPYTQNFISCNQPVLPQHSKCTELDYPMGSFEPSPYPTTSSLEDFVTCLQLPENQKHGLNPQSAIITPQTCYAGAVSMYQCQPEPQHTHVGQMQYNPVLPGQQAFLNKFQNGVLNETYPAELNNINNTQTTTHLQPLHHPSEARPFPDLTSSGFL
# Test: AhR transcription reporter assay (HT29-Lucia AhR cells)
# Assay type: cell-based
# Conditions: 1 µM, 24 h, relative to DMSO
# Description: Our previous studies have shown that the activity of NAP-6 (2) and 10-Cl-BBQ (3) required the activation of the AhR pathway and the induction of CYP1 family of phase I metabolising enzymes ([Gilbert et al., 2020]; [Baker et al., 2021a]). Therefore, we sought to determine the activation of AhR using a stable AhR reporter assay in HT29-Lucia™ AhR cells, in the presence of each BBQ analogue (Figure 3). Activation of the AhR was indicated by enhanced luminescence caused by the translocation of the AhR to the nucleus of the cell and interaction with the xenobiotic response elements imbedded in the luciferase gene.
# Stock solutions were prepared as follows and stored as 20 mM DMSO solutions at −20 °C. All cell lines were cultured in a humidified atmosphere 5% CO2 at 37 °C. The cancer cell lines were maintained in Dulbecco’s modified Eagle’s medium (DMEM) (Trace Biosciences, Australia) supplemented with 10% foetal bovine serum (FBS), 10 mM sodium bicarbonate, penicillin (100 IU/mL), streptomycin (100 μg/mL), and glutamine (4 mM). The non-cancer MCF10A cell line was cultured in DMEM:F12 (1:1) cell culture media, 5% heat inactivated horse serum, supplemented with penicillin (50 IU/mL), streptomycin (50 μg/mL), 20 mM Hepes, L-glutamine (2 mM), epidermal growth factor (20 ng/mL), hydrocortisone (500 ng/mL), cholera toxin (100 ng/mL), and insulin (10 μg/mL). The AhR reporter cell line HT29-Lucia™ (Invivogen, United States) was maintained in DMEM supplemented with 10% heat inactivated FBS, L-glutamine (2 mM), penicillin (100 IU/mL), streptomycin (100 μg/mL), 100 μg/mL Normocin™, and 100 μg/mL of the selective antibiotic Zeocin™. All cell lines were purchased from the American Type Culture Collection (ATCC), except for A2780 and A431 which were from the European Collection of Authenticated Cell Cultures (ECACC), and SJ-G2 cell line which was from Dr Mary Danks, St Jude Children’s Research hospital, Memphis, TN.
# The activity of the AhR signalling pathway was measured using the stably transfected AhR cell line, HT29-Lucia™ (Invivogen, United States). This cell line stably expresses the secreted Lucia luciferase reporter gene under the control of a minimal promoter coupled with the human CYP1A1 gene entire regulatory sequence, containing six DREs. The Lucia luciferase reporter protein is readily measurable in the cell culture supernatant using QUANTI-Luc™. For the determination of AhR activity, 4 × 10^4 cells in 180 μL was plated into each well of a 96 well micro-titre plate in the absence of antibiotics and allowed to culture for 24 h prior to the addition of test compounds in a volume of 20 μL. At the indicated time, 20 μL of cell supernatant was transferred to a white luminometer plate and 50 µL of QUANTI-Luc was added immediately prior to reading the luminescence using a GloMax Explorer Luminescence Plate Reader. The promoter activity was conducted in duplicate and the values expressed as fold-change relative to DMSO (0.1%) treated cells. The AhR ligand, FICZ (6-formylindolo[3,2-b]carbazole) and AhR inhibitor CH223191 were included for study as positive and negative controls, respectively. […] Results are presented as the mean ± standard error of the mean (SEM) of analysis conducted in duplicate and repeated on three separate occasions.
row,Compound,"AhR activation, Fold Reporter Induction"
1,"O=C(O)c1ccc2c3c1cccc3c(=O)n1c3ccccc3nc21 [Compound 14, reference compound]",1.5 fold
2,"O=c1c2cccc3cccc(c32)c2nc3ccc(Cl)cc3n12 [Compound 3, 10-Chloro-7H-benzo[de]benzo[4,5]imidazo[2,1-a]isoquinolin-7-one]",2.7 fold
3,"7-Oxo-7H-benzo[de]benzo[4,5]imidazo[2,1-a]isoquinoline-10-carbonitrile (9a) and 7-oxo-7H-benzo[de]benzo[4,5]imidazo[2,1-a]isoquinoline-11-carbonitrile (9b) [Compound 9]",2.5 fold
4,"3-Nitro-7H-benzo[de]benzo[4,5]imidazo[2,1-a]isoquinolin-7-one (11a) and 4-nitro-7H-benzo[de]benzo[4,5]imidazo[2,1-a]isoquinolin-7-one (11b) [Compound 11]",10.2 fold
5,"Nc1ccccc1N1C(=O)c2cccc3cccc(c23)C1=O [Compound 2, 2-(2-aminophenyl)-1H-benzo[de]isoquinoline-1,3(2H)-dione]",1.8 fold
6,"O=c1c2cccc3cccc(c32)c2nc3cc(Cl)ccc3n12 [Compound 4, 11-Chloro-7H-benzo[de]benzo[4,5]imidazo[2,1-a]isoquinolin-7-one]",2.9 fold
7,"9-Methyl-7H-benzo[de]benzo[4,5]imidazo[2,1-a]isoquinolin-7-one (8a) and 12-methyl-7H-benzo[de]benzo[4,5]imidazo[2,1-a]isoquinolin-7-one (8b) [Compound 8]",2.5 fold
8,"10-Methyl-7H-benzo[de]benzo[4,5]imidazo[2,1-a]isoquinolin-7-one (7a) and 11-methyl-7H-benzo[de]benzo[4,5]imidazo[2,1-a]isoquinolin-7-one (7b) [Compound 7]",2.8 fold
9,"3-Chloro-7H-benzo[de]benzo[4,5]imidazo[2,1-a]isoquinolin-7-one (10a) and 4-chloro-7H-benzo[de]benzo[4,5]imidazo[2,1-a]isoquinolin-7-one (10b) [Compound 10]",2.7 fold
10,"O=c1c2cccc3cccc(c32)c2nc3ccccc3n12 [Compound 5, 7H-Benzo[de]benzo[4,5]imidazo[2,1-a]isoquinolin-7-one]",3.1 fold
11,"O=c1c2ccccc2cc2[nH]c3ccccc3n12 [Compound 12, Benzo[4,5]imidazo[1,2-b]isoquinolin-11(5H)-one]",1.2 fold
12,"O=c1c2cccc3cccc(c4n1Cc1ccccc1N=4)c32 [Compound 13, 7H,9H-benzo[4,5]isoquinolino[1,2-b]quinazolin-7-one]",1.8 fold
